Experimental data from publication PMC11435058, “Synthesis of New Thiazole-Privileged Chalcones as Tubulin Polymerization Inhibitors with Potential Anticancer Activities” (Pharmaceuticals, 2024).
Like-named read-outs stand apart in the source and are kept apart here.

Assays:
[1] = tested on: MOLT-4; test: NCI-60 anticancer screen (SRB; single dose and five doses); settings: Homo sapiens
[2] = tested on: UO-31; test: as above; settings: Homo sapiens
[3] = tested on: T-47D; test: as above; settings: Homo sapiens, T47D
[4] = tested on: HL-60(TB); test: as above; settings: Homo sapiens
[5] = tested on: MALME-3M; test: as above; settings: Homo sapiens
[6] = tested on: TK-10; test: as above; settings: Homo sapiens
[7] = tested on: KM12; test: as above; settings: Homo sapiens
[8] = tested on: SNB-19; test: cells; settings: Homo sapiens
[9] = tested on: NCI-H522; test: NCI-60 anticancer screen (SRB; single dose and five doses); settings: Homo sapiens
[10] = tested on: MCF7; test: as above; settings: Homo sapiens
[11] = tested on: HT29; test: as above; settings: Homo sapiens
[12] = tested on: LOX IMVI; test: as above; settings: Homo sapiens
[13] = tested on: K-562; test: as above; settings: Homo sapiens
[14] = tested on: SK-OV-3; test: as above; settings: Homo sapiens
[15] = tested on: 786-0; test: as above; settings: Homo sapiens
[16] = tested on: 60 human tumor cell lines panel; test: NCI-60 anticancer screen, whole panel (means and ranges over the cell lines); type: cell-based; settings: for activity at 10 µM: Homo sapiens, 48 h, dose of 10 μM
[17] = tested on: OVCAR-3; test: cells; settings: Homo sapiens
[18] = tested on: HCT-116; test: NCI-60 anticancer screen (SRB; single dose and five doses); settings: Homo sapiens
[19] = tested on: OVCAR-5; test: as above; settings: Homo sapiens
[20] = tested on: NCI/ADR-RES; test: as above; settings: Homo sapiens
[21] = tested on: OVCAR-4; test: as above; settings: Homo sapiens
[22] = tested on: NCI-H226; test: as above; settings: Homo sapiens
[23] = tested on: HCT-15; test: as above; settings: Homo sapiens
[24] = tested on: UACC-257; test: as above; settings: Homo sapiens
[25] = tested on: U251; test: as above; settings: Homo sapiens
[26] = tested on: MDA-MB-435; test: as above; settings: Homo sapiens
[27] = tested on: SK-MEL-5; test: as above; settings: Homo sapiens
[28] = tested on: A549/ATCC; test: as above; settings: Homo sapiens
[29] = tested on: HCC-2998; test: as above
[30] = 48 h, read-out: Growth Percentage
[31] = five doses, mean graph midpoint over all cell lines

Cc1[nH]c(=S)sc1C(=O)/C=C/c1ccc(F)cc1 [2c, (E)-3-(4-Fluorophenyl)-1-(4-Methyl-2-Thioxo-2,3-Dihydrothiazol-5-yl)Prop-2-En-1-One]
GI50 ([1]; MOLT-4): 16.7 µM
activity at 10 µM ([1]; MOLT-4, 48 h, read-out: Growth Percentage): 58.7%
CC50 ([1]; MOLT-4, read-out: LC50): > 100 µM
IC (TGI) ([1]; MOLT-4, read-out: TGI): 64.3 µM
GI50 ([2]; UO-31): 2.88 µM
activity at 10 µM ([2]; UO-31, 48 h, read-out: Growth Percentage): 28.1%
IC (TGI) ([2]; UO-31, read-out: TGI): 15.7 µM
GI50 [3]: 3.94 µM
CC50 ([3]; read-out: LC50): > 100 µM
IC (TGI) ([3]; read-out: TGI): 28.8 µM
GI50 ([4]; HL-60): 2.83 µM
activity at 10 µM ([4]; HL-60, 48 h, read-out: Growth Percentage): 13%
CC50 ([4]; HL-60, read-out: LC50): > 100 µM
IC (TGI) ([4]; HL-60, read-out: TGI): 32.2 µM
GI50 [5]: 12.4 µM
activity at 10 µM [5, 30]: 85.8%
CC50 ([5]; read-out: LC50): 60.9 µM
IC (TGI) ([5]; read-out: TGI): 27.5 µM
GI50 ([6]; TK-10): 12.5 µM
activity at 10 µM ([6]; TK-10, 48 h, read-out: Growth Percentage): 40.4%
CC50 ([6]; TK-10, read-out: LC50): 50.7 µM
IC (TGI) ([6]; TK-10, read-out: TGI): 25.2 µM
GI50 ([7]; KM12): 4.28 µM
activity at 10 µM ([7]; KM12, 48 h, read-out: Growth Percentage): 6.85%
CC50 ([7]; KM12, read-out: LC50): 41 µM
IC (TGI) ([7]; KM12, read-out: TGI): 15.4 µM
GI50 ([8]; SNB-19): 4.87 µM
activity at 10 µM ([8]; SNB-19, 48 h, read-out: Growth Percentage): 33.7%
CC50 ([8]; SNB-19, read-out: LC50): 43.1 µM
IC (TGI) ([8]; SNB-19, read-out: TGI): 17.8 µM
GI50 ([9]; NCI-H522): 8.63 µM
activity at 10 µM ([9]; NCI-H522, 48 h, read-out: Growth Percentage): 44.2%
CC50 ([9]; NCI-H522, read-out: LC50): 46.8 µM
IC (TGI) ([9]; NCI-H522, read-out: TGI): 21.2 µM
GI50 ([10]; MCF7): 2.65 µM
activity at 10 µM ([10]; MCF7, 48 h, read-out: Growth Percentage): 9.48%
CC50 ([10]; MCF7, read-out: LC50): 37 µM
IC (TGI) ([10]; MCF7, read-out: TGI): 11.4 µM
GI50 ([11]; HT-29): 10.6 µM
activity at 10 µM ([11]; HT-29, 48 h, read-out: Growth Percentage): 73.3%
CC50 ([11]; HT-29, read-out: LC50): 52.4 µM
IC (TGI) ([11]; HT-29, read-out: TGI): 23.6 µM
GI50 [12]: 3.26 µM
activity at 10 µM [12, 30]: 8.91%
CC50 ([12]; read-out: LC50): 36.6 µM
IC (TGI) ([12]; read-out: TGI): 12.7 µM
GI50 ([13]; K562): 3.25 µM
activity at 10 µM ([13]; K562, 48 h, read-out: Growth Percentage): 20.4%
CC50 ([13]; K562, read-out: LC50): > 100 µM
IC (TGI) ([13]; K562, read-out: TGI): 48.8 µM
GI50 ([14]; SK-OV-3): 11 µM
CC50 ([14]; SK-OV-3, read-out: LC50): 61.8 µM
IC (TGI) ([14]; SK-OV-3, read-out: TGI): 26.1 µM
GI50 ([15]; 786-0): 4.59 µM
activity at 10 µM ([15]; 786-0, 48 h, read-out: Growth Percentage): 37.3%
CC50 ([15]; 786-0, read-out: LC50): 47.1 µM
IC (TGI) ([15]; 786-0, read-out: TGI): 17.6 µM
activity at 10 µM ([16]; mean over the tested cell lines, read-out: Mean growth percentage): 36.7%
activity at 10 µM ([16]; range over the cell lines, read-out: growth percentages against most of the tested cells (lowest to highest)): -13.6 to 119%
Log10GI50 _MID [16, 31]: -5.23 Molar
Log10LC50 _MID [16, 31]: -4.26 Molar
Log10TGI _MID [16, 31]: -4.65 Molar
GI50 ([17]; OVCAR-3): 2.42 µM
activity at 10 µM ([17]; OVCAR-3, 48 h, read-out: Growth Percentage): -10.9%
CC50 ([17]; OVCAR-3, read-out: LC50): 24.5 µM
IC (TGI) ([17]; OVCAR-3, read-out: TGI): 6.81 µM
GI50 ([18]; HCT-116): 3.99 µM
activity at 10 µM ([18]; HCT-116, 48 h, read-out: Growth Percentage): 23.7%
CC50 ([18]; HCT-116, read-out: LC50): 42.5 µM
IC (TGI) ([18]; HCT-116, read-out: TGI): 15.2 µM
GI50 ([19]; OVCAR-5): 15.6 µM
activity at 10 µM ([19]; OVCAR-5, 48 h, read-out: Growth Percentage): 119%
CC50 ([19]; OVCAR-5, read-out: LC50): 57.7 µM
IC (TGI) ([19]; OVCAR-5, read-out: TGI): 30 µM
GI50 [20]: 5.92 µM
activity at 10 µM [20, 30]: -10.8%
CC50 ([20]; read-out: LC50): 85 µM
IC (TGI) ([20]; read-out: TGI): 24.9 µM
GI50 ([21]; OVCAR-4): 6.03 µM
activity at 10 µM ([21]; OVCAR-4, 48 h, read-out: Growth Percentage): 48.4%
CC50 ([21]; OVCAR-4, read-out: LC50): 44.7 µM
IC (TGI) ([21]; OVCAR-4, read-out: TGI): 19.6 µM
GI50 ([22]; NCI-H226): 5.27 µM
activity at 10 µM ([22]; NCI-H226, 48 h, read-out: Growth Percentage): 67.1%
CC50 ([22]; NCI-H226, read-out: LC50): > 100 µM
IC (TGI) ([22]; NCI-H226, read-out: TGI): 27.6 µM
GI50 ([23]; HCT-15): 3.27 µM
activity at 10 µM ([23]; HCT-15, 48 h, read-out: Growth Percentage): 14.7%
CC50 ([23]; HCT-15, read-out: LC50): 43.7 µM
IC (TGI) ([23]; HCT-15, read-out: TGI): 14.2 µM
GI50 ([24]; UACC-257): 12.6 µM
activity at 10 µM ([24]; UACC-257, 48 h, read-out: Growth Percentage): 64.1%
CC50 ([24]; UACC-257, read-out: LC50): 56.6 µM
IC (TGI) ([24]; UACC-257, read-out: TGI): 26.7 µM
GI50 ([25]; U-251): 3.63 µM
activity at 10 µM ([25]; U-251, 48 h, read-out: Growth Percentage): 14.1%
CC50 ([25]; U-251, read-out: LC50): 41.9 µM
IC (TGI) ([25]; U-251, read-out: TGI): 15.1 µM
GI50 ([26]; MDA-MB-435): 4.24 µM
activity at 10 µM ([26]; MDA-MB-435, 48 h, read-out: Growth Percentage): 4.67%
CC50 ([26]; MDA-MB-435, read-out: LC50): 48.7 µM
IC (TGI) ([26]; MDA-MB-435, read-out: TGI): 17.5 µM
GI50 ([27]; SK-MEL-5): 6.77 µM
activity at 10 µM ([27]; SK-MEL-5, 48 h, read-out: Growth Percentage): 42.6%
CC50 ([27]; SK-MEL-5, read-out: LC50): 44.2 µM
IC (TGI) ([27]; SK-MEL-5, read-out: TGI): 19.5 µM
GI50 ([28]; A549): 12.4 µM
activity at 10 µM ([28]; A549, 48 h, read-out: Growth Percentage): 56%
CC50 ([28]; A549, read-out: LC50): 57.7 µM
IC (TGI) ([28]; A549, read-out: TGI): 26.8 µM
GI50 ([29]; Homo sapiens, HCC 2998): 3.46 µM
activity at 10 µM ([29]; Homo sapiens, HCC 2998, 48 h, read-out: Growth Percentage): 27.1%
CC50 ([29]; Homo sapiens, HCC 2998, read-out: LC50): 36.5 µM
TGI ([29]; five-dose, Colon Cancer HCC-2998): 13.2 µM
